For six compounds, MIC, Activity and IC50 results are on record in ChEMBL document CHEMBL4387792, “Cytotoxic and Antibacterial Cervinomycins B1-4 from a Streptomyces Species” (J Nat Prod, 2019).

Values after ≈ are worked out from the molar mass of the structure shown. Active and inactive are the calls of the source. No cut-off for these calls is given here.

Experiment [1] has as its system Staphylococcus aureus. In words: Antibacterial activity against methicillin-resistant Staphylococcus aureus ATCC 33591 assessed as prevention of visible bacterial growth incubated for 18 hrs by broth dilution method. The format is functional. The note with it: ATCC 33591, 18 h.
In experiment [2] the test system is Enterococcus faecalis. In words: Antibacterial activity against vancomycin-resistant Enterococcus faecalis ATCC 51575 assessed as prevention of visible bacterial growth incubated for 18 hrs by broth dilution method. The format is functional. The note with it: ATCC 51575, 18 h.
Experiment [3] deals with Enterococcus faecium. The experiment can be described thus: Antibacterial activity against vancomycin-resistant Enterococcus faecium 12-1 assessed as prevention of visible bacterial growth incubated for 18 hrs by broth dilution method. The format is functional. The note with it: 12-1, 18 h.
In experiment [4] the test system is Enterococcus faecium. In words: Antibacterial activity against vancomycin-resistant Enterococcus faecium ATCC 700221 assessed as prevention of visible bacterial growth incubated for 18 hrs by broth dilution method. The format is functional. The following applies: ATCC 700221, 18 h.
Experiment [5] has as its system Enterococcus faecalis. The experiment can be described thus: Antibacterial activity against vancomycin-resistant Enterococcus faecalis ATCC 51299 assessed as prevention of visible bacterial growth incubated for 18 hrs by broth dilution method. The format is functional. The note with it: ATCC 51299, 18 h.
Experiment [6] deals with Staphylococcus aureus. In words: Antibacterial activity against methicillin-resistant Staphylococcus aureus 16-30 assessed as prevention of visible bacterial growth incubated for 18 hrs by broth dilution method. The format is functional. The note with it: 16-30, 18 h.
The subject of another experiment is Shigella flexneri. The experiment can be described thus: Antibacterial activity against Shigella flexneri ATCC 12022 assessed as prevention of visible bacterial growth incubated for 18 hrs by broth dilution method. The format is functional, organism-based.
Experiment [7] deals with Staphylococcus aureus. In words: Antibacterial activity against methicillin-sensitive Staphylococcus aureus ATCC 29213 assessed as prevention of visible bacterial growth incubated for 18 hrs by broth dilution method. The format is functional, organism-based.
The next experiment concerns SW1990. In words: Cytotoxicity against human SW1990 cells incubated for 72 hrs by MTT assay. The format is functional, cell-based. The following applies: SW1990, 72 h.
For a further experiment, the system named is Pseudomonas aeruginosa. In words: Antibacterial activity against Pseudomonas aeruginosa ATCC 27853 assessed as prevention of visible bacterial growth incubated for 18 hrs by broth dilution method. The format is functional, organism-based.
Experiment [8] deals with Enterococcus faecalis. The experiment can be described thus: Antibacterial activity against vancomycin-sensitive Enterococcus faecalis ATCC 29212 assessed as prevention of visible bacterial growth incubated for 18 hrs by broth dilution method. The format is functional, organism-based.
A further experiment has as its system PC-3. The experiment can be described thus: Cytotoxicity against human PC3 cells incubated for 72 hrs by MTT assay. The format is functional, cell-based. The note with it: PC-3, 72 h.
Experiment [9] has as its system Staphylococcus epidermidis. The experiment can be described thus: Antibacterial activity against methicillin-sensitive Staphylococcus epidermidis ATCC 12228 assessed as prevention of visible bacterial growth incubated for 18 hrs by broth dilution method. The format is functional, organism-based.
In a further experiment the test system is Enterobacter cloacae. In words: Antibacterial activity against Enterobacter cloacae ATCC 43560 assessed as prevention of visible bacterial growth incubated for 18 hrs by broth dilution method. The format is functional, organism-based.
In experiment [10] the test system is Klebsiella pneumoniae. In words: Antibacterial activity against extended-spectrum beta-lactamase non-producing Klebsiella pneumoniae 16-2 assessed as prevention of visible bacterial growth incubated for 18 hrs by broth dilution method. The format is functional, organism-based.
In experiment [11] the test system is Enterococcus faecium. The experiment can be described thus: Antibacterial activity against vancomycin-sensitive Enterococcus faecium 16-5 assessed as prevention of visible bacterial growth incubated for 18 hrs by broth dilution method. The format is functional, organism-based.
Experiment [12] concerns Klebsiella pneumoniae. The experiment can be described thus: Antibacterial activity against extended-spectrum beta-lactamase producing Klebsiella pneumoniae 700603 assessed as prevention of visible bacterial growth incubated for 18 hrs by broth dilution method. The format is functional, organism-based.
Experiment [13] deals with Staphylococcus aureus. In words: Antibacterial activity against methicillin-sensitive Staphylococcus aureus 15 assessed as prevention of visible bacterial growth incubated for 18 hrs by broth dilution method. The format is functional, organism-based.
The test system of experiment [14] is Staphylococcus epidermidis. The experiment can be described thus: Antibacterial activity against methicillin-sensitive Staphylococcus epidermidis 16-4 assessed as prevention of visible bacterial growth incubated for 18 hrs by broth dilution method. The format is functional, organism-based.
Experiment [15] deals with Staphylococcus aureus. The experiment can be described thus: Antibacterial activity against methicillin-sensitive Staphylococcus aureus 16-1 assessed as prevention of visible bacterial growth incubated for 18 hrs by broth dilution method. The format is functional, organism-based.
The test system of the next experiment is NCI-H1299. The experiment can be described thus: Cytotoxicity against human NCI-H1299 cells incubated for 72 hrs by MTT assay. The format is functional, cell-based. The note with it: NCI-H1299, 72 h.
Experiment [16] deals with Enterococcus faecalis. The experiment can be described thus: Antibacterial activity against vancomycin-sensitive Enterococcus faecalis 16-6 assessed as prevention of visible bacterial growth incubated for 18 hrs by broth dilution method. The format is functional, organism-based.
In experiment [17] the test system is Escherichia coli. The experiment can be described thus: Antibacterial activity against extended-spectrum beta-lactamase non-producing Escherichia coli ATCC 25922 assessed as prevention of visible bacterial growth incubated for 18 hrs by broth dilution method. The format is functional, organism-based.
The test system of experiment [18] is Escherichia coli. In words: Antibacterial activity against extended-spectrum beta-lactamase producing Escherichia coli ATCC 35218 assessed as prevention of visible bacterial growth incubated for 18 hrs by broth dilution method. The format is functional, organism-based.
Experiment [19] relates to Acinetobacter calcoaceticus. The experiment can be described thus: Antibacterial activity against Acinetobacter calcoaceticus ATCC 19606 assessed as prevention of visible bacterial growth incubated for 18 hrs by broth dilution method. The format is functional, organism-based.
Experiment [20] concerns Staphylococcus epidermidis. The experiment can be described thus: Antibacterial activity against methicillin-resistant Staphylococcus epidermidis 16-5 assessed as prevention of visible bacterial growth incubated for 18 hrs by broth dilution method. The format is functional, organism-based.

Take `C[C@H]1COc2c(N3CCN(C)CC3)c(F)cc3c(=O)c(C(=O)O)cn1c23.C[C@H]1COc2c(N3CCN(C)CC3)c(F)cc3c(=O)c(C(=O)O)cn1c23.O` [LEVOFLOXACIN]: the MIC worked out at 0.12 µg/mL in the experiment with Staphylococcus aureus [1]; 2 µg/mL with Enterococcus faecalis [2]; 128 µg/mL in the experiment on Enterococcus faecium [3]; 128 µg/mL in the experiment on Enterococcus faecium [4]; 1 µg/mL in the experiment on Enterococcus faecalis [5]; 32 µg/mL in the experiment on Staphylococcus aureus [6].

As to `COc1cc2oc3c(c(=O)c2cc1O)C(=O)C1=C(CCc2cc4c(c(O)c21)C(=O)N1CCO[C@]1(C)C4)C3=O`, the outcome (in the experiment on Shigella flexneri; with Staphylococcus aureus [7]; in the experiment with Pseudomonas aeruginosa; in the experiment with Enterococcus faecalis [8]; in experiment [9]; with Enterobacter cloacae) was inactive. In addition, the outcome (with Klebsiella pneumoniae [10]; with Enterococcus faecium [11]; with Klebsiella pneumoniae [12]; in the experiment on Staphylococcus aureus [13]; in [14]; in the experiment on Staphylococcus aureus [15]) was inactive. In addition, the result (with Enterococcus faecalis [16]; with Escherichia coli [17]; with Escherichia coli [18]; in experiment [19]; in [20]) was inactive. The results for the 50% inhibitory concentration (IC50) in the experiment with SW1990, in the experiment on PC-3 and in the experiment on NCI-H1299 were 20.9 nM, 34.3 nM and 107 nM, respectively. Also, the MIC in the experiment with Staphylococcus aureus [1] worked out at 0.25 µg/mL (≈ 0.485 µM); in the experiment on Enterococcus faecalis [2] it was 0.5 µg/mL (≈ 0.97 µM); with Enterococcus faecium [3] it was 0.25 µg/mL (≈ 0.485 µM); in the experiment on Enterococcus faecium [4], 0.5 µg/mL (≈ 0.97 µM); with Enterococcus faecalis [5] it was 0.25 µg/mL (≈ 0.485 µM); in the experiment with Staphylococcus aureus [6] it was 0.12 µg/mL (≈ 0.233 µM).

Take `COc1cc2oc3c(O)c4c(c(O)c3c(=O)c2cc1OC)-c1c(cc2c(c1O)C(=O)N1CCO[C@]1(C)C2)CC4`: the result (in the experiment with Shigella flexneri; in the experiment on Staphylococcus aureus [7]; in the experiment with Pseudomonas aeruginosa; in the experiment with Enterococcus faecalis [8]; in [9]; in the experiment with Enterobacter cloacae) was inactive. In addition, the outcome (in the experiment with Klebsiella pneumoniae [10]; in the experiment on Enterococcus faecium [11]; with Klebsiella pneumoniae [12]; in the experiment with Staphylococcus aureus [13]; in experiment [14]; with Staphylococcus aureus [15]) was inactive. The result (in the experiment on Enterococcus faecalis [16]; in the experiment on Escherichia coli [17]; with Escherichia coli [18]; in [19]; in experiment [20]) was inactive. Besides, the IC50 turned out to be 2.2 nM in the experiment with SW1990, 2.2 nM in the experiment on PC-3 and 0.1 nM in the experiment with NCI-H1299. For the same compound, the MIC in the experiment with Staphylococcus aureus [1] stood at 0.06 µg/mL (≈ 0.113 µM); in the experiment on Enterococcus faecalis [2] it was 0.12 µg/mL (≈ 0.226 µM); in the experiment with Enterococcus faecium [3] it was 0.03 µg/mL (≈ 0.0564 µM); with Enterococcus faecium [4], 0.12 µg/mL (≈ 0.226 µM); with Enterococcus faecalis [5], 0.06 µg/mL (≈ 0.113 µM); in the experiment on Staphylococcus aureus [6], 0.06 µg/mL (≈ 0.113 µM).

`COc1cc2oc3c(O)c4c(c(O)c3c(=O)c2cc1O)-c1c(cc2c(c1O)C(=O)N1CCO[C@]1(C)C2)CC4`: the result (with Shigella flexneri; in the experiment with Staphylococcus aureus [7]; with Pseudomonas aeruginosa; in the experiment on Enterococcus faecalis [8]; in experiment [9]; with Enterobacter cloacae) was inactive. Besides, the outcome (in the experiment on Klebsiella pneumoniae [10]; in the experiment on Enterococcus faecium [11]; in the experiment on Klebsiella pneumoniae [12]; in the experiment with Staphylococcus aureus [13]; in [14]; in the experiment on Staphylococcus aureus [15]) was inactive. For the same compound, the result (in the experiment on Enterococcus faecalis [16]; in the experiment on Escherichia coli [17]; in the experiment with Escherichia coli [18]; in experiment [19]; in [20]) was inactive. Further, the IC50 was found to be 0.8 nM in the experiment on SW1990, 4.4 nM with PC-3 and 49.1 nM in the experiment with NCI-H1299. Also, the MIC was determined as 0.016 µg/mL (≈ 0.0309 µM) in the experiment on Staphylococcus aureus [1]; 0.016 µg/mL (≈ 0.0309 µM) in the experiment on Enterococcus faecalis [2]; 0.03 µg/mL (≈ 0.058 µM) with Enterococcus faecium [3]; 0.03 µg/mL (≈ 0.058 µM) with Enterococcus faecium [4]; 0.016 µg/mL (≈ 0.0309 µM) with Enterococcus faecalis [5]; 0.008 µg/mL (≈ 0.0155 µM) in the experiment on Staphylococcus aureus [6].

Turning to `COc1cc2oc3c(c(=O)c2cc1OC)C(=O)C1=C(CCc2cc4c(c(O)c21)C(=O)N1CCO[C@]1(C)C4)C3=O`, the outcome (in the experiment on Shigella flexneri; in the experiment with Staphylococcus aureus [7]; with Pseudomonas aeruginosa; in the experiment on Enterococcus faecalis [8]; in experiment [9]; in the experiment with Enterobacter cloacae) was inactive. The outcome (with Klebsiella pneumoniae [10]; in the experiment with Enterococcus faecium [11]; in the experiment with Klebsiella pneumoniae [12]; in the experiment with Staphylococcus aureus [13]; in experiment [14]; with Staphylococcus aureus [15]) was inactive. The outcome (with Enterococcus faecalis [16]; in the experiment with Escherichia coli [17]; in the experiment with Escherichia coli [18]; in experiment [19]; in [20]) was inactive. For the same compound, the half-inhibitory concentration (IC50) in the experiment with SW1990 was 5.4 nM; in the experiment with PC-3, 3.5 nM; in the experiment on NCI-H1299, 2 nM. In addition, the MIC in the experiment on Staphylococcus aureus [1] stood at 0.06 µg/mL (≈ 0.113 µM); in the experiment with Enterococcus faecalis [2], 0.12 µg/mL (≈ 0.227 µM); with Enterococcus faecium [3], 0.12 µg/mL (≈ 0.227 µM); in the experiment on Enterococcus faecium [4], 0.06 µg/mL (≈ 0.113 µM); in the experiment with Enterococcus faecalis [5], 0.12 µg/mL (≈ 0.227 µM); with Staphylococcus aureus [6] it was 0.12 µg/mL (≈ 0.227 µM).

With `COc1cc2oc3c(c(=O)c2cc1OC)C(=O)c1c(ccc2cc4c(c(O)c12)C(=O)N1CCO[C@]1(C)C4)C3=O`, the values for the concentration for half-maximal inhibition (IC50) in the experiment on SW1990, in the experiment with PC-3 and in the experiment with NCI-H1299 were 704 nM, 1310 nM and 252 nM, respectively. Besides, the MIC was 0.5 µg/mL (≈ 0.948 µM) in the experiment on Staphylococcus aureus [1]; 0.12 µg/mL (≈ 0.227 µM) with Enterococcus faecalis [2]; 1 µg/mL (≈ 1.9 µM) in the experiment on Enterococcus faecium [3]; 1 µg/mL (≈ 1.9 µM) with Enterococcus faecium [4]; 0.12 µg/mL (≈ 0.227 µM) with Enterococcus faecalis [5]; 0.5 µg/mL (≈ 0.948 µM) in the experiment on Staphylococcus aureus [6].
